Source: US6815460B2, “Process for preparing prodrugs of benzenesulfonamide-containing cox-2 inhibitors” (Pharmacia Corporation, priority 1996, dated 2004)
Structures can show the parent of a compound that is named as a salt.

What was measured:
[1] = test system: Male Sprague-Dawley rats; assay: Rat Carrageenan-induced Analgesia Test; assay type: in vivo; details: dosed orally, inhibition of hyperalgesic foot withdrawal, three hours after carrageenan
Protocol: Rat Carrageenan-induced Analgesia Test
The rat carrageenan analgesia test was performed with materials, reagents and procedures essentially as described by Hargreaves, et al., (Pain, 32, 77 (1988)). Male Sprague-Dawley rats were treated as previously described for the Carrageenan Foot Pad Edema test. Three hours after the injection of the carrageenan, the rats were placed in a special plexiglass container with a transparent floor having a high intensity lamp as a radiant heat source, positionable under the floor. After an initial twenty minute period, thermal stimulation was begun on either the injected foot or on the contralateral uninjected foot. A photoelectric cell turned off the lamp and timer when light was interrupted by paw withdrawal. The time until the rat withdraws its foot was then measured. The withdrawal latency in seconds was determined for the control and drug-treated groups, and percent inhibition of the hyperalgesic foot withdrawal determined.

[2] = In vitro conversion of prodrugs by S9 liver fractions; assay type: in vitro ADME; details: purified S9 fractions (3 mg/ml), compound 10 ug/ml, 37° C., pH 7.2, 90 minutes, HPLC
Protocol: IN VITRO CONVERSION OF PRODRUGS
The conversion of the prodrugs by S9 liver fractions was determined by the following method. The S9 liver-fraction suspension (IIAM) was thawed and the suspension was stirred by vortex. The suspension was mixed with 12M urea at 1:7, v:v, (yielding […] final concentration) and further stirred by vortex. The S9 suspension solution was partially purified by solid phase extraction (Vac-Elut apparatus:C18 columns (Varian #1210-2001)) eluting with acetonitrile. The fractions were mixed by vortex and concentrated to dryness under nitrogen (no heat). The fractions were resuspended in 100 μl acetonitrile:phosphate buffer (8.3 mM, pH 7.2) (20:80).
The compounds were dissolved in water (0.2 ml, 10 ug/ml) and incubated at 37° C. (pH 7.2, 90 minutes) with purified S9 fractions (0.2 ml, 3 mg/ml). Conversion of the prodrug to the active COX-2 inhibitor was followed by HPLC (Beckmann System Gold, Novapak C18 column (3.9×150 mm), acetonitrile:phosphate buffer (8.3 mM, pH 7.2) (20:80-40:60), UV detection 240 nm). Quantitation of the conversion of the prodrug was determined by measurement of integrated HPLC peak area.

[3] = test system: Male Sprague-Dawley rats; assay: Rat Carrageenan Foot Pad Edema Test; assay type: in vivo; details: dosed orally one hour before carrageenan, foot volume three hours after carrageenan
Protocol: Rat Carrageenan Foot Pad Edema Test
The carrageenan foot edema test was performed with materials, reagents and procedures essentially as described by Winter, et al., (Proc. Soc. Exp. Biol. Med., 111, 544 (1962)). Male Sprague-Dawley rats were selected in each group so that the average body weight was as close as possible. Rats were fasted with free access to water for over sixteen hours prior to the test. The rats were dosed orally (1 mL) with compounds suspended in vehicle containing 0.5% methylcellulose and 0.025% surfactant, or with vehicle alone. One hour later a subplantar injection of 0.1 mL of 1% solution of carrageenan/sterile 0.9% saline was administered and the volume of the injected foot was measured with a displacement plethysmometer connected to a pressure transducer with a digital indicator. Three hours after the injection of the carrageenan, the volume of the foot was again measured. The average foot swelling in a group of drug-treated animals was compared with that of a group of placebo-treated animals and the percentage inhibition of edema was determined (Otterness and Bliven, Laboratory Models for Testing NSAIDs, in Non-steroidal Anti-Inflammatory Drugs, (J. Lombardino, ed. 1985)).

SMILES | Metabolism of Prodrugs: Parent (% remaining) [2] [%] | melting point [°C] | other results
CCCC(=O)NS(=O)(=O)c1ccc(-c2c(-c3ccccc3)noc2C)cc1 [Example 25, N-[[4-(5-Methyl-3-phenylisoxazol-4-yl)phenyl]sulfonyl]butanamide, Sodium Salt] | 0.8 | – | ANALGESIA % Inhibition @ 10 mg/kg body weight [1]: 33%; RAT PAW EDEMA % Inhibition @ 30 mg/kg body weight [3]: 60%
CCC(=O)NS(=O)(=O)c1ccc(-c2c(-c3ccccc3)noc2C)cc1 [Example 18, N-[[4-(5-Methyl-3-phenylisoxazol-4-yl]phenyl]sulfonyl]propanamide, Sodium Salt] | 3.3 | – | –
CC(=O)NS(=O)(=O)c1ccc(-c2c(-c3cccc(F)c3)noc2C)cc1 [Example 14, N-[[4-[3-(3-Fluorophenyl)-5-methylisoxazol-4-yl]phenyl]sulfonyl]acetamide, Sodium Salt] | 63.4 | – | ANALGESIA % Inhibition @ 10 mg/kg body weight ([1]; Sodium Salt): 41%; RAT PAW EDEMA % Inhibition @ 30 mg/kg body weight ([3]; Sodium Salt): 65%
CC(=O)NS(=O)(=O)c1ccc(-c2c(-c3cccc(F)c3)noc2C)cc1 [Example 13, N-[[4-[3-(3-Fluorophenyl)-5-methylisoxazol-4-yl]phenyl]sulfonyl]acetamide] | – | 144 to 145 | ANALGESIA % Inhibition @ 10 mg/kg body weight [1]: 61.5%; RAT PAW EDEMA % Inhibition @ 30 mg/kg body weight [3]: 58%
COC(=O)CCC(=O)NS(=O)(=O)c1ccc(-c2c(-c3ccccc3)noc2C)cc1 [Example 23, Methyl 4-[[[4-(5-methyl-3-phenylisoxazol-4-yl]phenyl]sulfonyl]amino]-4-oxobutanoate] | – | 114.9 to 117.7 | –
CC(=O)NS(=O)(=O)c1ccc(-c2c(-c3ccccc3)noc2C)cc1.[K] | – | 279.7 to 283.7 | –
CCC(=O)NS(=O)(=O)c1ccc(-n2cc(C(F)(F)F)nc2-c2cccnc2C)cc1 [Example 84, N-[[4-[2-(2-Methylpyridin-3-yl)-4-trifluoromethylimidazol-1-yl]phenyl]sulfonyl]propanamide] | – | 217 to 218 | –
CC(=O)NCC(=O)NS(=O)(=O)c1ccc(-c2c(-c3ccccc3)noc2C)cc1 [Example 82, 2-(Acetylamino)-N-[[4-(5-methyl-3-phenylisoxazol-4-yl)phenyl]sulfonyl]acetamide] | – | 218.2 to 219.3 | –
CCC(=O)NS(=O)(=O)c1ccc(-c2c(C)c(C)nn2-c2ccccc2)cc1 [Example 68, N-[[4-[3,4-Dimethyl-1-phenyl-1H-pyrazol-5-yl]phenyl]sulfonyl]propanamide] | – | 187.4 to 188.7 | –
COc1ccc2c(c1F)CSc1c(C(F)(F)F)nn(-c3ccc(S(=O)(=O)NC(C)=O)cc3)c1-2.[Na] | – | 183 to 191.1 | –
